Reference: patent US12662479B2 (Foghorn Therapeutics Inc., priority 2020, dated 2026)

How the values were obtained:
HiBit-BRM fusion protein = target: T1, HiBit-BRM fusion protein (Homo sapiens, UniProt P51531); test: HiBiT-BRM cell-based degradation assay (Nano-Glo HiBiT Lytic Detection, 24 h); details: HeLa cells expressing HiBiT-BRM; for DC50: read-out: BRM HiBit Degradation IC50; for BRM HiBit Degradation Maximum measured: top dose 30 μM
T1 construct: expressed in transfected cells
Method in brief: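 HeLa cells stably expressing HiBiT-BRM were dosed with compounds (10-point 3-fold dilutions, 30 μM final top dose, duplicate) for 24 h. HiBiT signal was read by lytic LgBiT complementation luminescence. Percent degradation was normalised to DMSO (high control) and 2 μM of a reference BRM/BRG1 degrader (low control).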

[1] = target: T2, HiBit-BRG1 fusion protein (Homo sapiens, UniProt P51532); test: HiBiT-BRG1 cell-based degradation assay (Nano-Glo HiBiT Lytic Detection, 24 h); details: HeLa cells expressing HiBit-BRG1 and LgBit; for DC50: read-out: BRG1 HiBit Degradation IC50; for Dmax: HeLa, top dose 30 μM, read-out: BRG1 HiBit Degradation Maximum measured
T2 construct: expressed in transfected cells
Method in brief: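 Stable HeLa line expressing HiBiT-BRG1 and LgBiT, seeded at 5000 cells/well; luminescence read after lytic Nano-Glo HiBiT reagent and 10 min shaking at RT. % degradation normalised between DMSO (high control) and 2 μM reference BRM/BRG1 degrader (low control).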

T1 sequence (P51531 whole entry, the tested form may be a part): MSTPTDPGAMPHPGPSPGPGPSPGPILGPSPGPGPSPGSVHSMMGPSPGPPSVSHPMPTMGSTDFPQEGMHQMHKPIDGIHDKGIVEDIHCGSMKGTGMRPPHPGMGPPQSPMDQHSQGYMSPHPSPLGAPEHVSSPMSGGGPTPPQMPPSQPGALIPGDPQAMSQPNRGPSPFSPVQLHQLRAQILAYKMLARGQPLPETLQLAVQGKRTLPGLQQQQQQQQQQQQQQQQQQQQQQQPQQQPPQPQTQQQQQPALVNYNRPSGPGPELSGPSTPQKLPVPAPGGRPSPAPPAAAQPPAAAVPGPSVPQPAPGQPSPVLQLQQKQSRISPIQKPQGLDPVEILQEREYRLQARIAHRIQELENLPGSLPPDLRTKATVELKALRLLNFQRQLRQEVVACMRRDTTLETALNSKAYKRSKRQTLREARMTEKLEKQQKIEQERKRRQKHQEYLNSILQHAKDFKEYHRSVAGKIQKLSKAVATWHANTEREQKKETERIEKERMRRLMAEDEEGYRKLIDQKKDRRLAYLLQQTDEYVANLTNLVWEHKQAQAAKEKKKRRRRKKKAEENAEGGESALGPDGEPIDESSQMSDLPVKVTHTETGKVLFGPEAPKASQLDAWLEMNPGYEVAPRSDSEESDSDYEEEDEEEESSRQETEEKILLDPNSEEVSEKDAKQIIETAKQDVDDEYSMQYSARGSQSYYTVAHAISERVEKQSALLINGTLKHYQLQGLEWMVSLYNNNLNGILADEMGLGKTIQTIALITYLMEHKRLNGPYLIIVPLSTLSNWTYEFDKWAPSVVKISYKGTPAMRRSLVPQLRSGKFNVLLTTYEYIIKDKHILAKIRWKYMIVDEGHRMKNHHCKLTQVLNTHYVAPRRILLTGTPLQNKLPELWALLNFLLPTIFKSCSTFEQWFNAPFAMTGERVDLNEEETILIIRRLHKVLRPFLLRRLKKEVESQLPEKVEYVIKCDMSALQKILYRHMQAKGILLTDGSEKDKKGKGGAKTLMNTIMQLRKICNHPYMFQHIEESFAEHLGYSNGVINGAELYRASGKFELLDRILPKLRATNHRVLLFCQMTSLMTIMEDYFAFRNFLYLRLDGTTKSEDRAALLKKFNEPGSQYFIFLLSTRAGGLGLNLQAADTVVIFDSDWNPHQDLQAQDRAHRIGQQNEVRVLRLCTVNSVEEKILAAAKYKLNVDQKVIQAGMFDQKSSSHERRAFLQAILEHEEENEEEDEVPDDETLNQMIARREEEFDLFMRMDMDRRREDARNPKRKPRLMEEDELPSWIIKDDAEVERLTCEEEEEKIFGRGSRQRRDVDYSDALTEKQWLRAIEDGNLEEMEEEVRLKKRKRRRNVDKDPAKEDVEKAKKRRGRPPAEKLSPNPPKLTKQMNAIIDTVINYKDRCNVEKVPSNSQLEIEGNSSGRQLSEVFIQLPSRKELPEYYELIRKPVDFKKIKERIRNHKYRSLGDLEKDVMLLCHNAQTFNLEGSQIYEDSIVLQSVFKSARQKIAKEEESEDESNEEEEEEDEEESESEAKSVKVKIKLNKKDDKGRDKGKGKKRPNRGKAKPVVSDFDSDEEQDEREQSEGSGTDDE
T2 sequence (P51532 whole entry, the tested form may be a part): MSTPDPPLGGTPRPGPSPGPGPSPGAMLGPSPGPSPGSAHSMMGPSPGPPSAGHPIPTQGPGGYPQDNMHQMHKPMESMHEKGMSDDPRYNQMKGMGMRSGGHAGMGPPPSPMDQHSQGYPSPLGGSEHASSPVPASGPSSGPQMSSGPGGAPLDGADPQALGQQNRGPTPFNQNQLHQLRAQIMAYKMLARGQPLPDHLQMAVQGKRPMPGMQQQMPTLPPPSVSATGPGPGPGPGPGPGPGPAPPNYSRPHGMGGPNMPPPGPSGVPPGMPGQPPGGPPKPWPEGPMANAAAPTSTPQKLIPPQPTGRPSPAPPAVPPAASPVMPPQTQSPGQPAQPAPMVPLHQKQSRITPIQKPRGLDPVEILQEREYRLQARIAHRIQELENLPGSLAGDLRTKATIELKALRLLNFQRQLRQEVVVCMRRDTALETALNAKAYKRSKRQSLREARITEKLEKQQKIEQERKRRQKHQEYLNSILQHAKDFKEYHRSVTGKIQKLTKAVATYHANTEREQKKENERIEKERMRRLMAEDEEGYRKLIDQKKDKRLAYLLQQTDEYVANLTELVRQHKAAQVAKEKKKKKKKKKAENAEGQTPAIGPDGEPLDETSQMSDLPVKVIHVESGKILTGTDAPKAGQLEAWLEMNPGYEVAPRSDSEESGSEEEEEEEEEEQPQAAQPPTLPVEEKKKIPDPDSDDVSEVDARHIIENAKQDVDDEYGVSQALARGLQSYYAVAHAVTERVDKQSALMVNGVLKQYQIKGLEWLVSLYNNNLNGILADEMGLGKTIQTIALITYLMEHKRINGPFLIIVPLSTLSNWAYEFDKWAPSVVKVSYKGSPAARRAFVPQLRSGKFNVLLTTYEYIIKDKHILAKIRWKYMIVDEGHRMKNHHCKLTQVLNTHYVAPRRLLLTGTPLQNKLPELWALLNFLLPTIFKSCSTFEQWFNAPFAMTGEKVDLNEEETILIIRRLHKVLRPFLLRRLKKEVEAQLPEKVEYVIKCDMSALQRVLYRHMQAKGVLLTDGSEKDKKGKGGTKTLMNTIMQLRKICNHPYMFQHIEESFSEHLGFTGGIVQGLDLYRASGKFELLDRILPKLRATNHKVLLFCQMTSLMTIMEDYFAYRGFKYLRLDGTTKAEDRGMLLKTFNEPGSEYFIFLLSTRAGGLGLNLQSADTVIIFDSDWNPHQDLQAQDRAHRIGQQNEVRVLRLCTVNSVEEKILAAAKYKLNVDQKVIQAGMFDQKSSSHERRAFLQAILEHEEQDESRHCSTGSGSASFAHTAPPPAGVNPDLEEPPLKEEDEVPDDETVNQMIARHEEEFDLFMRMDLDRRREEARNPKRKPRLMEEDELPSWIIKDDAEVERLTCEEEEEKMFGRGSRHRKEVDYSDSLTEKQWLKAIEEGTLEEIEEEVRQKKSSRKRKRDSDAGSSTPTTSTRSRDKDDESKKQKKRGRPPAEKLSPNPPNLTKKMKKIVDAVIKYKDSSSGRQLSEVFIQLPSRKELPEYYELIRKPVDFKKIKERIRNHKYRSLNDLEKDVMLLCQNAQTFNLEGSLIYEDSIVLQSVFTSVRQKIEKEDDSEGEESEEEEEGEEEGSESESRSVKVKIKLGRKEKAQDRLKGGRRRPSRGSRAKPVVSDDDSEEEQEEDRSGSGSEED

| DC50 (HiBit-BRM fusion protein) | BRM HiBit Degradation Maximum measured (HiBit-BRM fusion protein) | DC50 [1] | Dmax [1] | SMILES |
| --- | --- | --- | --- | --- |
| > 10 µM | C (‘C’ = Maximum degradation <50%) | > 10 µM | < 50% | CS(=O)(=O)n1ccc(C(=O)N[C@@H](COCc2ccc(CNC(=O)CCOCCOCCOc3cccc4c3C(=O)N(C3CCC(=O)NC3=O)C4=O)cc2)C(=O)Nc2nc(-c3ccccc3)cs2)c1 (stereo partly drawn) [Compound 182, 3-[2-(2-[[2-(2,6-dioxopiperidin-3-yl)-1,3-dioxoisoindol-4-yl]oxy]ethoxy)ethoxy]-N-[(4-[[(2S)-2-[(1-methanesulfonylpyrrol-3-yl)formamido]-2-[(4-phenyl-1,3-thiazol-2-yl)carbamoyl]ethoxy]methyl]phenyl)methyl]propanamide] |
| > 10 µM | C (‘C’ = Maximum degradation <50%) | > 10 µM | < 50% | COC(=O)N1CCCC(c2csc(NC(=O)[C@H](CCCCNC(=O)CCCCCCCCCCNc3cccc4c3C(=O)N(C3CCC(=O)NC3=O)C4=O)NC(=O)c3ccn(C(C)(C)C)c3)n2)C1 (stereo partly drawn) [Compound 184, methyl 3-[2-[(2S)-2-[(1-tert-butylpyrrol-3-yl)formamido]-6-(11-[[2-(2,6-dioxopiperidin-3-yl)-1,3-dioxoisoindol-4-yl]amino]undecanamido)hexanamido]-1,3-thiazol-4-yl]piperidine-1-carboxylate] |
| > 10 µM | C (‘C’ = Maximum degradation <50%) | > 10 µM | < 50% | CS(=O)(=O)n1ccc(C(=O)N[C@@H](COCCCC(=O)NCCCCCCCCNc2cccc3c2C(=O)N(C2CCC(=O)NC2=O)C3=O)C(=O)Nc2nc(-c3ccccc3)cs2)c1 (stereo partly drawn) [Compound 186, N-(8-[[2-(2,6-dioxopiperidin-3-yl)-1,3-dioxoisoindol-4-yl]amino]octyl)-4-[(2S)-2-[(1-methanesulfonylpyrrol-3-yl)formamido]-2-[(4-phenyl-1,3-thiazol-2-yl)carbamoyl]ethoxy]butanamide] |
| > 10 µM | C (‘C’ = Maximum degradation <50%) | > 10 µM | < 50% | CS(=O)(=O)n1ccc(C(=O)N[C@@H](COCCCC(=O)NCCCCCNc2ccc3c(c2)C(=O)N(C2CCC(=O)NC2=O)C3=O)C(=O)Nc2nc(-c3ccccc3)cs2)c1 (stereo partly drawn) [Compound 187, N-(5-[[2-(2,6-dioxopiperidin-3-yl)-1,3-dioxoisoindol-5-yl]amino]pentyl)-4-[(2S)-2-[(1-methanesulfonylpyrrol-3-yl)formamido]-2-[(4-phenyl-1,3-thiazol-2-yl)carbamoyl]ethoxy]butanamide] |

The remaining lines, values behind:

| SMILES | DC50 (HiBit-BRM fusion protein) | BRM HiBit Degradation Maximum measured (HiBit-BRM fusion protein) | DC50 [1] | Dmax [1] |
| --- | --- | --- | --- | --- |
| Cc1ncsc1-c1ccc(CNC(=O)[C@@H]2C[C@@H](O)CN2C(=O)[C@@H](NC(=O)COCCOCCNC(=O)CCCOC[C@H](NC(=O)c2ccn(S(C)(=O)=O)c2)C(=O)Nc2nc(-c3ccccc3)cs2)C(C)(C)C)cc1 [Compound 173, (2S,4R)-4-hydroxy-1-[(2S)-2-[2-[2-(2-[4-[(2S)-2-[(1-methanesulfonylpyrrol-3-yl)formamido]-2-[(4-phenyl-1,3-thiazol-2-yl)carbamoyl]ethoxy]butanamido]ethoxy)ethoxy]acetamido]-3,3-dimethylbutanoyl]-N-[[4-(4-methyl-1,3-thiazol-5-yl)phenyl]methyl]pyrrolidine-2-carboxamide] | > 10 µM | C (‘C’ = Maximum degradation <50%) | > 10 µM | < 50% |
| Cc1ncsc1-c1ccc(CNC(=O)C2CC(O)CN2C(=O)C(NC(=O)CCCCCCCNC(=O)c2ccc(COCC(NC(=O)c3ccn(S(C)(=O)=O)c3)C(=O)Nc3nc(-c4ccccc4)cs3)cc2)C(C)(C)C)cc1 (stereo not drawn) [Compound 174] | 0.1 to 1 µM | B (‘B’ = Maximum degradation ≥50% and ≤75%) | 0.1 to 1 µM | 50 to 75% |
| CN(CCNC(=O)COc1cccc2c1C(=O)N(C1CCC(=O)NC1=O)C2=O)CCNC(=O)c1ccc(COC[C@H](NC(=O)c2ccn(S(C)(=O)=O)c2)C(=O)Nc2nc(-c3ccccc3)cs2)cc1 (stereo partly drawn) [Compound 175] | > 10 µM | C (‘C’ = Maximum degradation <50%) | > 10 µM | < 50% |
| CS(=O)(=O)n1ccc(C(=O)N[C@@H](COCc2ccc(CNC(=O)CCN3CC4(C3)CN(c3ccc5c(c3)C(=O)N(C3CCC(=O)NC3=O)C5=O)C4)cc2)C(=O)Nc2nc(-c3ccccc3)cs2)c1 (stereo partly drawn) [Compound 176, (2S)-3-([4-[(3-[6-[2-(2,6-dioxopiperidin-3-yl)-1,3-dioxoisoindol-5-yl]-2,6-diazaspiro[3.3]heptan-2-yl]propanamido)methyl]phenyl]methoxy)-2-[(1-methanesulfonylpyrrol-3-yl)formamido]-N-(4-phenyl-1,3-thiazol-2-yl)propanamide] | 0.1 to 1 µM | B (‘B’ = Maximum degradation ≥50% and ≤75%) | 0.1 to 1 µM | 50 to 75% |
| Cc1ncsc1-c1ccc(CNC(=O)[C@@H]2C[C@@H](O)CN2C(=O)[C@@H](NC(=O)CCCCCCCCC(=O)NCc2ccc(COC[C@H](NC(=O)c3ccn(S(C)(=O)=O)c3)C(=O)Nc3nc(-c4ccccc4)cs3)cc2)C(C)(C)C)cc1 [Compound 177, N-[(2S)-1-[(2S,4R)-4-hydroxy-2-([[4-(4-methyl-1,3-thiazol-5-yl)phenyl]methyl]carbamoyl)pyrrolidin-1-yl]-3,3-dimethyl-1-oxobutan-2-yl]-N′-[(4-[[(2S)-2-[(1-methanesulfonylpyrrol-3-yl)formamido]-2-[(4-phenyl-1,3-thiazol-2-yl)carbamoyl]ethoxy]methyl]phenyl)methyl]decanediamide] | > 10 µM | C (‘C’ = Maximum degradation <50%) | 0.1 to 1 µM | 50 to 75% |
| CS(=O)(=O)n1ccc(C(=O)N[C@@H](COCc2ccc(CNC(=O)CCCOc3cccc4c3C(=O)N(C3CCC(=O)NC3=O)C4=O)cc2)C(=O)Nc2nc(-c3ccccc3)cs2)c1 (stereo partly drawn) [Compound 178, 4-[[2-(2,6-dioxopiperidin-3-yl)-1,3-dioxoisoindol-4-yl]oxy]-N-[(4-[[(2S)-2-[(1-methanesulfonylpyrrol-3-yl)formamido]-2-[(4-phenyl-1,3-thiazol-2-yl)carbamoyl]ethoxy]methyl]phenyl)methyl]butanamide] | > 10 µM | C (‘C’ = Maximum degradation <50%) | > 10 µM | < 50% |
| CS(=O)(=O)n1ccc(C(=O)N[C@@H](COCc2ccc(CNC(=O)CCCCCCOc3cccc4c3C(=O)N(C3CCC(=O)NC3=O)C4=O)cc2)C(=O)Nc2nc(-c3ccccc3)cs2)c1 (stereo partly drawn) [Compound 179, 7-[[2-(2,6-dioxopiperidin-3-yl)-1,3-dioxoisoindol-4-yl]oxy]-N-[(4-[[(2S)-2-[(1-methanesulfonylpyrrol-3-yl)formamido]-2-[(4-phenyl-1,3-thiazol-2-yl)carbamoyl]ethoxy]methyl]phenyl)methyl]heptanamide] | > 10 µM | C (‘C’ = Maximum degradation <50%) | > 10 µM | < 50% |
| CS(=O)(=O)n1ccc(C(=O)N[C@@H](COCc2ccc(CNC(=O)CCCCCCCCCCNc3cccc4c3C(=O)N(C3CCC(=O)NC3=O)C4=O)cc2)C(=O)Nc2nc(-c3ccccc3)cs2)c1 (stereo partly drawn) [Compound 180, 11-[[2-(2,6-dioxopiperidin-3-yl)-1,3-dioxoisoindol-4-yl]amino]-N-[(4-[[(2S)-2-[(1-methanesulfonylpyrrol-3-yl)formamido]-2-[(4-phenyl-1,3-thiazol-2-yl)carbamoyl]ethoxy]methyl]phenyl)methyl]undecanamide] | 0.1 to 1 µM | B (‘B’ = Maximum degradation ≥50% and ≤75%) | 0.1 to 1 µM | 50 to 75% |
| CS(=O)(=O)n1ccc(C(=O)N[C@@H](COCc2ccc(CNC(=O)CCOCCOCCNc3cccc4c3C(=O)N(C3CCC(=O)NC3=O)C4=O)cc2)C(=O)Nc2nc(-c3ccccc3)cs2)c1 (stereo partly drawn) [Compound 181] | 0.1 to 1 µM | B (‘B’ = Maximum degradation ≥50% and ≤75%) | 0.1 to 1 µM | 50 to 75% |
| CS(=O)(=O)n1ccc(C(=O)N[C@@H](CCOCCCC(=O)N2CCN(CC3CN(c4ccc5c(c4)C(=O)N(C4CCC(=O)NC4=O)C5=O)C3)CC2)C(=O)Nc2nc(-c3ccccc3)cs2)c1 (stereo partly drawn) [Compound 183, (2S)-4-[4-[4-([1-[2-(2,6-dioxopiperidin-3-yl)-1,3-dioxoisoindol-5-yl]azetidin-3-yl]methyl)piperazin-1-yl]-4-oxobutoxy]-2-[(1-methanesulfonylpyrrol-3-yl)formamido]-N-(4-phenyl-1,3-thiazol-2-yl)butanamide; formic acid] | > 10 µM | C (‘C’ = Maximum degradation <50%) | > 10 µM | < 50% |
| CS(=O)(=O)n1ccc(C(=O)N[C@@H](COCCCC(=O)NCCNc2ccc3c(c2)C(=O)N(C2CCC(=O)NC2=O)C3=O)C(=O)Nc2nc(-c3ccccc3)cs2)c1 (stereo partly drawn) [Compound 185, N-((2S)-3-(4-((2-((2-(2,6-dioxopiperidin-3-yl)-1,3-dioxoisoindolin-5-yl)amino)ethyl)amino)-4-oxobutoxy)-1-oxo-1-((4-phenylthiazol-2-yl)amino)propan-2-yl)-1-(methylsulfonyl)-1H-pyrrole-3-carboxamide] | > 10 µM | C (‘C’ = Maximum degradation <50%) | > 10 µM | < 50% |
